ChEMBL document CHEMBL2046361, “Ianthelliformisamines A-C, antibacterial bromotyrosine-derived metabolites from the marine sponge Suberea ianthelliformis” (J Nat Prod, 2012)
Converted amounts (≈) assume the structure as drawn. The source made the active and inactive calls. The calls are words filed in the database; no cut-off is given here.

Legend:
[1] = system: Pseudomonas aeruginosa; assay: Antimicrobial activity against Pseudomonas aeruginosa PAO1 assessed as inhibition of cell viability at 350 uM after 18 hrs by spectrophotometry; format: functional, organism-based
[2] = system: Staphylococcus aureus; assay: Antimicrobial activity against Staphylococcus aureus 01A1095 assessed as inhibition of cell viability at 350 uM after 18 hrs by spectrophotometry; format: functional, organism-based
[3] = system: Pseudomonas aeruginosa; assay: Antimicrobial activity against Pseudomonas aeruginosa PAO1 assessed as inhibition of cell viability at 175 uM after 18 hrs by spectrophotometry; format: functional; details: PAO1, 18 h
[4] = system: Staphylococcus aureus; assay: Antimicrobial activity against Staphylococcus aureus 01A1095 assessed as inhibition of cell viability at 87.5 uM after 18 hrs by spectrophotometry; format: functional; details: 01A1095, 18 h
[5] = system: Pseudomonas aeruginosa; assay: Antimicrobial activity against Pseudomonas aeruginosa PAO1 assessed as inhibition of cell viability after 18 hrs by spectrophotometry; format: functional, organism-based; details: PAO1, 18 h
[6] = system: Staphylococcus aureus; assay: Antimicrobial activity against Staphylococcus aureus 01A1095 assessed as inhibition of cell viability after 18 hrs by spectrophotometry; format: functional, organism-based; details: 01A1095, 18 h
[7] = system: Staphylococcus aureus; assay: Antimicrobial activity against Staphylococcus aureus 01A1095 assessed as inhibition of cell viability at 175 uM after 18 hrs by spectrophotometry; format: functional; details: 01A1095, 18 h
[8] = system: Pseudomonas aeruginosa; assay: Antimicrobial activity against Pseudomonas aeruginosa PAO1 assessed as inhibition of cell viability at 87.5 uM after 18 hrs by spectrophotometry; format: functional; details: PAO1, 18 h

Compound: CN(C)CCCOc1c(Br)cc(CCN(C)C)cc1Br
- inhibition [1]: inactive
- inhibition [2]: inactive

Compound: COC1=C(Br)[C@H](O)[C@@]2(C=C1Br)CC(C(=O)NCCCOc1c(Br)cc(CCN)cc1Br)=NO2 [ARAPLYSILLIN I]
- inhibition at 175 µM [3]: 65%
- inhibition at 87.5 µM [4]: 60%

Compound: O=C(O)c1cn(C2CC2)c2cc(N3CCNCC3)c(F)cc2c1=O [CIPROFLOXACIN]
- IC50 [5]: 0.038 µM
- IC50 [6]: 125 µM

Compound: COc1c(Br)cc(/C=C/C(=O)NCCCNCCCCNCCCN)cc1Br [IANTHELLIFORMISAMINE A]
- IC50 [5]: 6.8 µM
- MIC [5]: 35 µM (≈ 18.2 µg/mL)
- inhibition at 175 µM [7]: 77%

Compound: COc1c(Br)cc(/C=C/C(=O)NCCCNCCCCN)cc1Br [IANTHELLIFORMISAMINE B]
- inhibition at 87.5 µM [8]: 80%

Compound: COc1c(Br)cc(/C=C/C(=O)NCCCNCCCCNCCCNC(=O)/C=C/c2cc(Br)c(OC)c(Br)c2)cc1Br [IANTHELLIFORMISAMINE C]
- IC50 [5]: 8.9 µM
- MIC [5]: 17.5 µM (≈ 14.7 µg/mL)
- IC50 [6]: 4.1 µM
- MIC [6]: 8.75 µM (≈ 7.33 µg/mL)
